Reference: PMC7585637 (Biomolecules & Therapeutics, 2020)
pIC50: −log10 of the molar value.

Biological target: T1, SIRT1 (Homo sapiens, UniProt Q96EB6)
T1 sequence (Q96EB6 2-747): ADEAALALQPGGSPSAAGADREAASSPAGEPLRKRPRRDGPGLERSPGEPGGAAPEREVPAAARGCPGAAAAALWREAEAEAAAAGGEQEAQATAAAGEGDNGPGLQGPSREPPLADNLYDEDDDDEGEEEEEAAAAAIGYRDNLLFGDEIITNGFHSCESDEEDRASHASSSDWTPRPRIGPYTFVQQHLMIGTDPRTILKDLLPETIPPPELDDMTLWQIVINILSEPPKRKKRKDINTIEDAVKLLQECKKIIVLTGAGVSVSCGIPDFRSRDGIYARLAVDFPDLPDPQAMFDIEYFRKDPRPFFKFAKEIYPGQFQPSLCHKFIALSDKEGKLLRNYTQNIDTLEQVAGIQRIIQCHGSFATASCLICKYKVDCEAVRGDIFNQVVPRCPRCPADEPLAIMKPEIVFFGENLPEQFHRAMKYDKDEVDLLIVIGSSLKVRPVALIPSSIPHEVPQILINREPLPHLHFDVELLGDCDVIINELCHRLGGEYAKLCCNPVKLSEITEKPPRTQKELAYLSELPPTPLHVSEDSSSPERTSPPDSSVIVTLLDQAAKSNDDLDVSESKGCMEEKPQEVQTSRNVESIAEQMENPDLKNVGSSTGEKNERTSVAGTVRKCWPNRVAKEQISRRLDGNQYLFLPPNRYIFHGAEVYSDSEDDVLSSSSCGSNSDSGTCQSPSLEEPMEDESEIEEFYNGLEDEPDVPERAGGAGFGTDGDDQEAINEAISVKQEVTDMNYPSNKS
Assay: Fluor-de-Lys SIRT1 fluorometric deacetylase assay
Assay type: biochemical

`CC(C)(C)c1cc(C=C2C(=O)NC(=S)NC2=O)cc(C(C)(C)C)c1O` [MHY2256, 5-(3,5-Di-tert-butyl-4-hydroxybenzylidene)-2-thioxodihydropyrimidine-4,6(1H,5H)-dione] was tested, and the pIC50 was 5.99.
